Results from patent US20200261485A1, “COMPOSITIONS COMPRISING 3'-O-GLUCURONIDE EPICATECHIN AND METHODS OF MAKING AND USING SUCH COMPOSITIONS” (NESTEC S.A., priority 2015, published 2020).
pEC50: −log10 of the molar value. “Also recorded” adds a separate entry of the source.

Key:
[1] = test system: endothelial nitric oxide synthase; assay: Phosphorylation of endothelial nitric oxide synthase (western blot) in isolated aortic rat rings; type: cell-based; design: dose or concentration left out as unconfirmed; settings: isolated Wistar rat aortic rings, 1 h incubation, FIG. 12
Procedure: Furthermore, comparative experiments were conducted on the expression of endothelial nitric oxide synthase in isolated aortic rat rings.
Thoracic aortas were obtained from male adults Wistar rats after euthanasia. Each aorta was carefully dissected and harvested cleaned of excess tissue and cut into three equal segments, approximately 7 mm long. All aortic rings were pre-incubated for 30 min in Krebs solution (20 mM Hepes buffer, pH 7.4, containing 119 mM NaCl, 4.7 mM KCl, 1 mM MgSO4, 0.4 mM NaH2PO4, 0.15 mM Na2HPO4, 5 mM NaHCO3, 1.25 mM CaCl2, 5.5 mM glucose) aerated with 95% O2 and 5% CO2 at 37° C. and then incubated with vehicle (DMSO 1%) or the different metabolites for 1 h. Metabolites were first dissolved in DMSO 1% and tested in a final concentration […]. At the end of the incubation period aortic rings were frozen at −70° C. until the homogenate preparation. Homogenates for western blot and western blot determinations were carried out by the regular procedures and phosphorylation level of endothelial nitric oxide synthase was evaluated.

h-TRPA1 = biological target: T1, h-TRPA1 (Homo sapiens, UniProt O75762); assay: Calcium imaging of activation of CHO cells expressing h-TRPA1; type: cell-based; settings: for Activity vs hTRPA1: CHO cells expressing h-TRPA1; for TRPA1 agonism (result in words): activation of CHO cells expressing h-TRPA1, FIGS. 4, 6, 7
T1 construct: expressed in transfected cells; host or cells: CHO cells
T1 sequence (O75762 whole entry): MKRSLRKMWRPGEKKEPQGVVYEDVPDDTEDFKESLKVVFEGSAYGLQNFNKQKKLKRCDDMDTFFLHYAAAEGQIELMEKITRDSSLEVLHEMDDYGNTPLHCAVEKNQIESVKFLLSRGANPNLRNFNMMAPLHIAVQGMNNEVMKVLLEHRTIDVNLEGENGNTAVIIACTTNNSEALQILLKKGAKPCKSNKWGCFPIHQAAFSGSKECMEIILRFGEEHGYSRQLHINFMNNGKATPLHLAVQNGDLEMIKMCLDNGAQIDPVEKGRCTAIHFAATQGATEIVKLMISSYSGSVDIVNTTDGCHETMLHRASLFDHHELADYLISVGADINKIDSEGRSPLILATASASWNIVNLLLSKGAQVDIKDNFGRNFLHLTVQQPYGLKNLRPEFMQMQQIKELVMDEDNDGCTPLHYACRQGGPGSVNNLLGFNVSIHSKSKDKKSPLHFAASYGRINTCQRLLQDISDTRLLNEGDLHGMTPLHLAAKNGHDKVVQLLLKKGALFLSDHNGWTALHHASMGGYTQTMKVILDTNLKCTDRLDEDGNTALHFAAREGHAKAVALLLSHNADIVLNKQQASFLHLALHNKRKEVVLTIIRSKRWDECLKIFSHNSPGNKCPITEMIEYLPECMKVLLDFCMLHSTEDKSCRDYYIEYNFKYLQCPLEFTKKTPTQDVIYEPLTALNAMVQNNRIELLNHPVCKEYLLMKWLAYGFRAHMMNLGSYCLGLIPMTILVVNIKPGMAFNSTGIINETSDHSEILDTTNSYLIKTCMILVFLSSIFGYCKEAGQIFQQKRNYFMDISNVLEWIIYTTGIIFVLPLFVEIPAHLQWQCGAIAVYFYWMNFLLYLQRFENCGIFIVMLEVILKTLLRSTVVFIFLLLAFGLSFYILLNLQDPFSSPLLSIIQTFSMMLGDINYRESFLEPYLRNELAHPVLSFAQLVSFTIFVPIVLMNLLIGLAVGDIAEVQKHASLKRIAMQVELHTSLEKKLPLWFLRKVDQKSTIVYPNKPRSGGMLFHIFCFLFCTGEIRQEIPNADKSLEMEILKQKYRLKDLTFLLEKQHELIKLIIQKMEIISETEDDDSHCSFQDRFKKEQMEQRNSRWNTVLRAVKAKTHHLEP
Procedure: Specifically, the activation of CHO cells expressing h-TRPA1 was tested according to the calcium imaging method described in Riera et al. (Riera, C. E., Vogel, H., Simon, S. A., Damak, S., & le Coutre, J. Sensory attributes of complex tasting divalent salts are mediated by TRPM5 and TRPV1 channels. J. Neurosci. 29, 2654-2662 (2009)).

[2] = concentration (max) tested 100 mM
[3] = concentration (max) tested 3 mM

Molecule: O=C(O)[C@H]1O[C@@H](Oc2cc([C@H]3Oc4cc(O)cc(O)c4C[C@H]3O)ccc2O)[C@H](O)[C@@H](O)[C@@H]1O [3′-O-glucuronide epicatechin]
- eNOS phosphorylation relative to control and chemically similar epicatechins [1]: increased eNOS phosphorylation
- Activity vs hTRPA1 (h-TRPA1; concentration (max) tested 133 mM): Active
- TRPA1 agonism (result in words) (h-TRPA1): is a TRPA1 agonist; also recorded: agonist of the cation channel of TRPA1
- pEC50 (h-TRPA1; activation of hTRPA1 in CHO cells): ~1.10
- Concentration dependence of activation of CHO cells expressing h-TRPA1 (h-TRPA1; different concentrations, dose-response curve, FIGS. 10 and 11): activation occurs in a concentration-dependent manner

Molecule: COc1cc([C@H]2Oc3cc(O)cc(O)c3C[C@H]2O)ccc1O [3′-O-methyl epicatechin]
- Activity vs hTRPA1 (h-TRPA1; [2]): Inactive
- TRPA1 agonism (result in words) (h-TRPA1): is not a TRPA1 agonist; also recorded: not TRPA1 agonists
- TRPA1 agonism (result in words) (h-TRPA1; listed as 3′-methyl epicatechin): not TRPA1 agonists

Molecule: O=S(=O)(O)Oc1cc([C@H]2Oc3cc(O)cc(O)c3C[C@H]2O)ccc1O [3′-O-sulfate epicatechin]
- Activity vs hTRPA1 (h-TRPA1; [2]): Inactive
- TRPA1 agonism (result in words) (h-TRPA1): is not a TRPA1 agonist; also recorded: not TRPA1 agonists

Molecule: COc1cc(C2Oc3cc(OS(=O)(=O)O)cc(O)c3CC2O)ccc1O (stereo not drawn) [3′-methyl-7-sulfate-EC]
- Activity vs hTRPA1 (h-TRPA1; [2]): Inactive

Molecule: O=C(O)[C@H]1O[C@@H](Oc2ccc([C@H]3Oc4cc(O)cc(O)c4C[C@H]3O)cc2O)[C@H](O)[C@@H](O)[C@@H]1O [4′-O-glucuronide epicatechin]
- eNOS phosphorylation relative to control and chemically similar epicatechins [1]: increased eNOS phosphorylation

Molecule: COc1ccc(C2Oc3cc(O)cc(O)c3CC2O)cc1O (stereo not drawn) [4′-methyl-EC]
- Activity vs hTRPA1 (h-TRPA1; [2]): Inactive

Molecule: O=S(=O)(O)Oc1ccc(C2Oc3cc(O)cc(O)c3CC2O)cc1O (stereo not drawn) [4′-sulfate-EC]
- Activity vs hTRPA1 (h-TRPA1; [2]): Inactive

Molecule: CC(C)c1ccc(NC(=O)Cn2cnc3c2c(=O)n(C)c(=O)n3C)cc1 [HC030031]
- Blockage of the activation of hTRPA1 by 3′-O-glucuronide epicatechin (h-TRPA1; selective hTRPA1 antagonist added, FIG. 9): blocked the activation of hTRPA1

Molecule: COc1ccc(C2CC(=O)c3c(O)cc(O)cc3O2)cc1O[C@@H]1O[C@H](C(=O)O)[C@@H](O)[C@H](O)[C@H]1O (stereo partly drawn) [Hesperetin-3-O-Glucuronide]
- Activity vs hTRPA1 (h-TRPA1; [3]): Inactive

Molecule: Hesperetin-4-O-Glucuronide
- Activity vs hTRPA1 (h-TRPA1; [3]): Inactive

Molecule: Hesperetin-7-3-O-Glucuronide
- Activity vs hTRPA1 (h-TRPA1; [3]): Inactive
